Source: the supplement of paper PMC11208160

Test: recombinant barcode read abundance after kanamycin selection (control-corrected) (log10(CPM+1)); higher = more efficient recombination; sequences stand for … in AGTGCAGAGAAAATCGGCCAGTTTTCTCTGCCTGCAGTCCGCATGCCGT…AGATTTATGCAGCGGACTGCCTTTCTCCCAAAGTGATAAACCGGACAGTATCATGGACCGGTTTTCCCGGTAATCCGTATTTGCAAGGTTGGTTTCACT; site = the 11-nt target
Procedure, shortened: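 The screen was pooled in E. coli and paired targets with IS621 bridge RNA target-binding loops. Recombination efficiency is taken from barcode counts per million at recombinant junctions, averaged and adjusted against the control. Values, in the form log10(CPM+1), come from duplicate plating on chloramphenicol/ampicillin LB agar or on chloramphenicol/ampicillin/kanamycin with 0.1 mM IPTG.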
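Note: IS621 recombinase and bridge RNA in Escherichia coli cells.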

Sequence	recombinant barcode read abundance (log10)
AGTCTAGCTTGGGTTCTAACCTGTTGCCT (site AGTCTAGCTGG)	0.141
AGTCTAGCTTGGGTTCTAACCTGTTGCCT (site AGTCTAGCTTG)	0.0207
AGTCTAGCTTGGGTTCTAACCTGTTGCTA (site AGTCTAGCTGA)	0.166
AGTCTAGCTTGGGTTCTAACCTGTTGCTA (site AGTCTAGCTTA)	0.175
AGTGAGACTTGGGTTCTAACCTGTTGCGG (site ACCGAGACTCC)	1.09
AGTGAGACTTGGGTTCTAACCTGTTGCGG (site AGTGAGACTCC)	2.99
AGTGCGCCTTGGGTTCTAACCTGTTGCTA (site AGTGCGCCTTA)	0.341
AGTGCGCCTTGGGTTCTAACCTGTTGCTA (site AGTTCGCCTTA)	0.29
AGTGTCGCTTGGGTTCTAACCTGTTGCGG (site AGTATCGCTCC)	0.96
AGTGTCGCTTGGGTTCTAACCTGTTGCGG (site AGTCTCGCTCC)	0.0162
AGTGTCGCTTGGGTTCTAACCTGTTGCGG (site AGTGTCGCTCC)	1.6
AGTGTCGCTTGGGTTCTAACCTGTTGCGG (site AGTTTCGCTCC)	0.301
AGTTCTCCTTGGGTTCTAACCTGTTGCCT (site AGTTCTCCTAG)	0.0504
AGTTCTCCTTGGGTTCTAACCTGTTGCCT (site CGTTCTCCTAG)	0.415
AGTTCTCCTTGGGTTCTAACCTGTTGCCT (site GGTTCTCCTAG)	0.207
AGTTCTCCTTGGGTTCTAACCTGTTGCCT (site TGTTCTCCTAG)	0.456
AGTTGCACTTGGGTTCTAACCTGTTGCCT (site AGTTACACTAG)	0.14
AGTTGCACTTGGGTTCTAACCTGTTGCCT (site AGTTCCACTAG)	0.11
AGTTGCACTTGGGTTCTAACCTGTTGCCT (site AGTTGCACTAG)	0.423
AGTTGCACTTGGGTTCTAACCTGTTGCCT (site AGTTTCACTAG)	0.0516
AGTTTAACTTGGGTTCTAACCTGTTGCAC (site AGTTTAACTGT)	0.0458
AGTTTAACTTGGGTTCTAACCTGTTGCAC (site GTCGGTCCTCG)	0.258

Sequence	recombinant barcode read abundance (log10)
ATAAAAGCTTGGGTTCTAACCTGTTGCCT (site ATAAAAGCTAG)	1.5
ATAAAAGCTTGGGTTCTAACCTGTTGCCT (site ATAACAGCTAG)	0.0538
ATAAAAGCTTGGGTTCTAACCTGTTGCCT (site ATAAGAGCTAG)	0.172
ATAAAAGCTTGGGTTCTAACCTGTTGCCT (site ATAATAGCTAG)	0.59
ATAAACCCTTGGGTTCTAACCTGTTGCAT (site AGAATCCCTAT)	0.324
ATAAACCCTTGGGTTCTAACCTGTTGCAT (site ATAAACCCTAT)	2.4
ATAACCTCTTGGGTTCTAACCTGTTGCCT (site ATAACCTCTAG)	2
ATAACCTCTTGGGTTCTAACCTGTTGCCT (site GAGGTGCCTCT)	0
ATAAGACCTTGGGTTCTAACCTGTTGCCT (site ATAAGACCTAG)	2.24
ATAAGACCTTGGGTTCTAACCTGTTGCCT (site ATGAGAGCTAG)	0.229
ATAAGGCCTTGGGTTCTAACCTGTTGCCT (site ATAAAGCCTAG)	0.102
ATAAGGCCTTGGGTTCTAACCTGTTGCCT (site ATAAGGCCTAG)	0.154
ATAGAATCTTGGGTTCTAACCTGTTGCTC (site ATAGAATCTGA)	1.96
ATAGAATCTTGGGTTCTAACCTGTTGCTC (site TGCCTGCCTCT)	0.204
ATAGACCCTTGGGTTCTAACCTGTTGCCT (site ATAGACCCTAG)	2.36
ATAGACCCTTGGGTTCTAACCTGTTGCCT (site CTAGACCCTAG)	0.918
ATAGACCCTTGGGTTCTAACCTGTTGCCT (site GTAGACCCTAG)	0.599
ATAGACCCTTGGGTTCTAACCTGTTGCCT (site TTAGACCCTAG)	1.49
ATAGAGTCTTGGGTTCTAACCTGTTGCCT (site ACAGATTCTAG)	0.143
ATAGAGTCTTGGGTTCTAACCTGTTGCCT (site ATAGAGTCTAG)	2.64
ATAGGGTCTTGGGTTCTAACCTGTTGCCT (site AAAGGGTCTAG)	1.04
ATAGGGTCTTGGGTTCTAACCTGTTGCCT (site ACAGGGTCTAG)	1.85

Sequence	recombinant barcode read abundance (log10)
ATAGGGTCTTGGGTTCTAACCTGTTGCCT (site AGAGGGTCTAG)	0.211
ATAGGGTCTTGGGTTCTAACCTGTTGCCT (site ATAGGGTCTAG)	2.5
ATAGGTCCTTGGGTTCTAACCTGTTGCCT (site ATAGGTCCTAG)	1.58
ATAGGTCCTTGGGTTCTAACCTGTTGCCT (site ATCGGTCCTAG)	0.202
ATAGGTCCTTGGGTTCTAACCTGTTGCCT (site ATGGGTCCTAG)	0.189
ATAGGTCCTTGGGTTCTAACCTGTTGCCT (site ATTGGTCCTAG)	0.309
ATATCAACTTGGGTTCTAACCTGTTGCCG (site ATATCAACTCG)	0.625
ATATCAACTTGGGTTCTAACCTGTTGCCG (site TCTGTGTCTTA)	0.0298
ATATCTTCTTGGGTTCTAACCTGTTGCCT (site ATATCTTCTAG)	1.03
ATATCTTCTTGGGTTCTAACCTGTTGCCT (site ATTTCTTCTAG)	0.578
ATATGATCTTGGGTTCTAACCTGTTGCCT (site ATATGATCTAG)	1.43
ATATGATCTTGGGTTCTAACCTGTTGCCT (site ATATTATCTTG)	0.145
ATATGTACTTGGGTTCTAACCTGTTGCCA (site ATATGTACTCG)	0.22
ATATGTACTTGGGTTCTAACCTGTTGCCA (site ATATGTACTTG)	0.733
ATATGTCCTTGGGTTCTAACCTGTTGCAA (site ATATGTCCTTT)	0.715
ATATGTCCTTGGGTTCTAACCTGTTGCAA (site GGTGCATCTAA)	0.0198
ATCAAAGCTTGGGTTCTAACCTGTTGCCT (site ATCAAAGCTAG)	0.154
ATCAAAGCTTGGGTTCTAACCTGTTGCCT (site ATCACAGCTAG)	0.156
ATCAAGCCTTGGGTTCTAACCTGTTGCAG (site ATCAAGCCTCT)	1.83
ATCAAGCCTTGGGTTCTAACCTGTTGCAG (site TATCCCTCTAG)	0.0814
ATCAAGCCTTGGGTTCTAACCTGTTGCTT (site ATCAAGCCTAA)	0.102
ATCAAGCCTTGGGTTCTAACCTGTTGCTT (site ATGAAGCCTAA)	0.122

Sequence	recombinant barcode read abundance (log10)
ATCATAGCTTGGGTTCTAACCTGTTGCGC (site ATCATAGCTGC)	0.504
ATCATAGCTTGGGTTCTAACCTGTTGCGC (site CCATACCCTTA)	0.0517
ATCATTCCTTGGGTTCTAACCTGTTGCCT (site AACATACCTAG)	0.237
ATCATTCCTTGGGTTCTAACCTGTTGCCT (site ATCATTCCTAG)	0.542
ATCCTTACTTGGGTTCTAACCTGTTGCCT (site AACCTTACTAG)	0.247
ATCCTTACTTGGGTTCTAACCTGTTGCCT (site ACCCTTACTAG)	0.136
ATCCTTACTTGGGTTCTAACCTGTTGCCT (site AGCCTTACTAG)	0.156
ATCCTTACTTGGGTTCTAACCTGTTGCCT (site ATCCTTACTAG)	1.16
ATCGCTTCTTGGGTTCTAACCTGTTGCCT (site AACGCTTCTAG)	0.246
ATCGCTTCTTGGGTTCTAACCTGTTGCCT (site ACCGCTTCTAG)	0.272
ATCGCTTCTTGGGTTCTAACCTGTTGCCT (site AGCGCTTCTAG)	0.432
ATCGCTTCTTGGGTTCTAACCTGTTGCCT (site ATCGCTTCTAG)	0.0338
ATCGGACCTTGGGTTCTAACCTGTTGCCT (site ATCGGAACTAG)	0.0754
ATCGGACCTTGGGTTCTAACCTGTTGCCT (site ATCGGACCTAG)	1.23
ATCGGACCTTGGGTTCTAACCTGTTGCCT (site ATCGGAGCTAG)	0.206
ATCGGACCTTGGGTTCTAACCTGTTGCCT (site ATCGGATCTAG)	0.107
ATCGGAGCTTGGGTTCTAACCTGTTGCCT (site ATCGGAACTAG)	0.196
ATCGGAGCTTGGGTTCTAACCTGTTGCCT (site ATCGGACCTAG)	0.0265
ATCGGAGCTTGGGTTCTAACCTGTTGCCT (site ATCGGAGCTAG)	0.775
ATCGGAGCTTGGGTTCTAACCTGTTGCCT (site ATCGGATCTAG)	0.181
